In patent publication EP2970215B1, “PYRROLIDINE DERIVATIVES, PHARMACEUTICAL COMPOSITIONS CONTAINING THEM, AND THEIR USE IN THERAPY” (AbbVie Deutschland GmbH & Co. KG, priority 2013, dated 2014):

molecular target: T1, human GlyT1c transporter (Homo sapiens, UniProt P48067); assay: Radioligand binding assay using recombinant CHO cell membranes expressing human GlyT1; conditions: radioligand binding to human GlyT1c transporter-expressing membranes
T1 construct: expressed in transfected cells; host or cells: CHO cells (recombinant; line hGlyT1c_5_CHO is named for the uptake assay)
T1 sequence (P48067 1-706): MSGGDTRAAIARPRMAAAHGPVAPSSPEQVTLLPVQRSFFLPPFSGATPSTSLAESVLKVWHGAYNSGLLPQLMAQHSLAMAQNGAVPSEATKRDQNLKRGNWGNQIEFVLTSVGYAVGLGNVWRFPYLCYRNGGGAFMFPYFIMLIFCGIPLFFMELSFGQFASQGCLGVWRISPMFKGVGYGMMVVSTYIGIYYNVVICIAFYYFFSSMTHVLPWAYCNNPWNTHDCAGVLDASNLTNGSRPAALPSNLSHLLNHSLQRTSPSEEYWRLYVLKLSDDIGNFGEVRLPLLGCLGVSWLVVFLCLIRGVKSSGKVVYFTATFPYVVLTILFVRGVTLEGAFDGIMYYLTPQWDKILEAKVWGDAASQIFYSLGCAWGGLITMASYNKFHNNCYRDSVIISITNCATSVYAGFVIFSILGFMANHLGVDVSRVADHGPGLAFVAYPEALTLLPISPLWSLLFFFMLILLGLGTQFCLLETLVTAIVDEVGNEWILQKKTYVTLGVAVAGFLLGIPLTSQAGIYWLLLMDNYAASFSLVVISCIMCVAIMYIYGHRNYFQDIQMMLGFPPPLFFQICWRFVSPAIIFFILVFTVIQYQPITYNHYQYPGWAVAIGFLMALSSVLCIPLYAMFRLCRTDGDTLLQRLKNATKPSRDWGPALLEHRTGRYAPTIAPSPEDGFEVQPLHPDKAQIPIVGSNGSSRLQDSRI
Description: 2. Radioligand binding assays using recombinant CHO cell membranes expressing human GlyT1: […]

Ki	SMILES
≤ 100 nM	Cc1cccc(OC[C@@H]2CN(S(=O)(=O)c3cn(C)cn3)C[C@H]2c2ccc(F)cc2)c1 (relative stereo) [Example 296, 4-({trans-3-(4-fluorophenyl)-4-[(3-methylphenoxy)methyl]pyrrolidin-1-yl}sulfonyl)-1-methyl-1H-imidazole]
≤ 10 nM	Cn1cnc(S(=O)(=O)N2C[C@@H](C(=O)c3cccc(Cl)c3)[C@H](c3ccc(F)cc3)C2)c1 (relative stereo) [Example 297, (3-chlorophenyl){trans-4-(4-fluorophenyl)-1-[(1-methyl-1H-imidazol-4-yl)sulfonyl]pyrrolidin-3-yl}methanone]
≤ 10 nM	Cn1cnc(S(=O)(=O)N2C[C@@H](Nc3ccc(F)c(OC(F)(F)F)c3)[C@H](c3ccccc3)C2)c1 (relative stereo) [Example 298, trans-N-[4-fluoro-3-(trifluoromethoxy)phenyl]-1-[(1-methyl-1H-imidazol-4-yl)sulfonyl] -4-phenylpyrrolidin-3-amine]
≤ 1000 nM	Cn1cnc(S(=O)(=O)N2C[C@@H](Nc3ccc(Cl)c(OC(F)(F)F)c3)[C@H](c3ccccc3)C2)c1 (relative stereo) [Example 299, trans-N-[4-chloro-3-(trifluoromethoxy)phenyl]-1-[(1-methyl-1H-imidazol-4-yl)sulfonyl]-4-phenylpyrrolidin-3-amine]
≤ 1000 nM	Cc1cccc(C(=O)[C@@H]2CN(S(=O)(=O)c3cn(C)cn3)C[C@H]2c2ccc(F)cc2)c1 (relative stereo) [Example 300, {trans-4-(4-fluorophenyl)-1-[(1-methyl-1H-imidazol-4-yl)sulfonyl]pyrrolidin-3-yl}(3-methylphenyl)methanone]
≤ 100 nM	Cn1cnc(S(=O)(=O)N2C[C@@H](C(=O)c3cccc(C(F)(F)F)c3)[C@H](c3ccc(F)cc3)C2)c1 (relative stereo) [Example 302, {trans-4-(4-fluorophenyl)-1-[(1-methyl-1H-imidazol-4-yl)sulfonyl]pyrrolidin-3-yl}[3-(trifluoromethyl)phenyl]methanone]
≤ 1000 nM	Cn1cnc(S(=O)(=O)N2C[C@@H](C(=O)Nc3cccc(Cl)c3)[C@H](c3ccc(F)cc3)C2)c1 (relative stereo) [Example 304, trans-N-(3-chlorophenyl)-4-(4-fluorophenyl)-1-[(1-methyl-1H-imidazol-4-yl)sulfonyl]pyrrolidine-3-carboxamide]
≤ 100 nM	Cn1cnc(S(=O)(=O)N2C[C@@H](Nc3ccc(Cl)c(OC(F)(F)F)c3)[C@H](c3ccc(F)cc3)C2)c1 (relative stereo) [Example 306, trans-N-[4-chloro-3-(trifluoromethoxy)phenyl]-4-(4-fluorophenyl)-1-[(1-methyl-1H-imidazol-4-yl)sulfonyl]pyrrolidin-3-amine]
≤ 100 nM	Cn1cnc(S(=O)(=O)N2C[C@@H](NCc3ccc(Cl)cc3Cl)[C@H](c3ccccn3)C2)c1 (relative stereo) [Example 307, trans-N-(2,4-dichlorobenzyl)-1-[(1-methyl-1H-imidazol-4-yl)sulfonyl]-4-(pyridin-2-yl)pyrrolidin-3-amine]
≤ 1000 nM	Cn1cnc(S(=O)(=O)N2C[C@@H](CNc3ccc(F)c(C(F)(F)F)c3)[C@H](c3ccc(F)cc3)C2)c1 (relative stereo) [Example 313, 4-fluoro-N-({trans-4-(4-fluorophenyl)-1-[(1-methyl-1H-imidazol-4-yl)sulfonyl]pyrrolidin-3-yl}methyl)-3-(trifluoromethyl)aniline]

SMILES	Ki
Cn1cnc(S(=O)(=O)N2C[C@@H](CNc3ccc(C(F)(F)F)c(Cl)c3)[C@H](c3ccc(F)cc3)C2)c1 (relative stereo) [Example 311, 3-chloro-N-({trans-4-(4-fluorophenyl)-1-[(1-methyl-1H-imidazol-4-yl)sulfonyl]pyrrolidin-3-yl}methyl)-4-(trifluoromethyl)aniline]	≤ 1000 nM
